Where “and” joins values, the source holds several entries; their conditions need not be identical. Equal entries are not always repeated. Where two headings read alike, the source gives them in different places.
Columns and labels:
[1] = test system: Botrytis cinerea; assay: Growth of B. cinerea in PDB liquid culture, optical density after 24 h; assay type: cell-based
[2] = test system: Alternaria alternata; assay: Growth of A. alternata in liquid culture, optical density after 24 h; assay type: cell-based
[3] = test system: Penicillium digitatum; assay: Growth of P. digitatum in liquid culture, optical density after 24 h; assay type: cell-based
[4] = test system: Cercospora beticola; assay: Growth of C. beticola on PDA, colony diameter; assay type: cell-based
Experimental: Cercospora beticola was cultured on PDA (potato dextrose agar) culture medium buffered to a pH value not exceeding 9.5. […] The % inhibition was calculated with the following formula:
[formula] wherein “colony diameter (control)” is the size of the control colony (without the compounds to be tested) and “colony diameter (x)” is the size of the colony with the substance(s) to be tested. A fixed K2CO3 concentration of 7.24 mM was tested in C. beticola.
The fungus C. beticola was cultured in a similar way to Example 16 with 10 ppm of carvacrol.
The fungus C. beticola was cultured in a similar way to Example 16 with a fixed concentration of K2CO3 (7.24 mM) and carvacrol (10 ppm).

[5] = test system: Botrytis cinerea; assay: Treated tomato leaves infected with B. cinerea, % infection after two weeks; assay type: in vivo
[6] = test system: Alternaria alternata; assay: Treated tomato leaves infected with A. alternata, % infection; assay type: in vivo
[7] = test system: Phytophthora infestans; assay type: in vivo; settings: tomato plants
[8] = test system: Leveillula taurica; assay type: in vivo
[9] = test system: Penicillium digitatum; settings: green mold on oranges; cited from earlier work
[10] = carvacrol 308 ppm, listed as carvacrol
[11] = K2CO3 concentration between 3.5 and 5 mM

**Q.** Which results are given for Cc1ccc(C(C)C)cc1O [Carvacrol, carvacrol]?
**A.** inhibition at 0.1 ppm ([1]; Botrytis cinerea, 24 h, read-out: Inhibition ± SD (%), carvacrol 0.1 ppm, 24 h OD): 0%; inhibition at 0.31 ppm ([1]; Botrytis cinerea, 24 h, read-out: Inhibition ± SD (%), carvacrol 0.31 ppm, 24 h OD): 10.5 ± 7.7%; inhibition at 1 ppm ([1]; Botrytis cinerea, 24 h, read-out: Inhibition ± SD (%), carvacrol 1 ppm, 24 h OD): 13.7 ± 4.1%; inhibition at 3.1 ppm ([1]; Botrytis cinerea, 24 h, read-out: Inhibition ± SD (%), carvacrol 3.1 ppm, 24 h OD): 22.4 ± 3.4%; inhibition at 10 ppm ([1]; Botrytis cinerea, 24 h, read-out: Inhibition ± SD (%), carvacrol 10 ppm, 24 h OD): 21%; inhibition at 31 ppm ([1]; Botrytis cinerea, 24 h, read-out: Inhibition ± SD (%), carvacrol 31 ppm, 24 h OD): 51.4 ± 5.5%; inhibition at 100 ppm ([1]; Botrytis cinerea, 24 h, read-out: Inhibition ± SD (%), carvacrol 100 ppm, 24 h OD): 74.4 ± 1.1%; Inhibition ± SD (%) ([1]; carvacrol 10 ppm, 24 h OD): 21.3 ± 5.0%; inhibition at 0.1 ppm ([2]; Alternaria alternata, read-out: Inhibition ± SD (%), carvacrol 0.1 ppm): 0%; inhibition at 0.31 ppm ([2]; Alternaria alternata, read-out: Inhibition ± SD (%), carvacrol 0.31 ppm): 2 ± 0.3%; inhibition at 1 ppm ([2]; Alternaria alternata, read-out: Inhibition ± SD (%), carvacrol 1 ppm): 3.5 ± 0.8%; inhibition at 3.1 ppm ([2]; Alternaria alternata, read-out: Inhibition ± SD (%), carvacrol 3.1 ppm): 5.8 ± 1.4%; inhibition at 10 ppm ([2]; Alternaria alternata, read-out: Inhibition ± SD (%), carvacrol 10 ppm): 17.7 ± 11%; inhibition at 31 ppm ([2]; Alternaria alternata, read-out: Inhibition ± SD (%), carvacrol 31 ppm): 27%; inhibition at 100 ppm ([2]; Alternaria alternata, read-out: Inhibition ± SD (%), carvacrol 100 ppm): 74.6 ± 8%; Inhibition ± SD (%) ([2]; carvacrol 31 ppm): 27.2 ± 14.0%; inhibition at 0.1 ppm ([3]; Penicillium digitatum, 24 h, read-out: Inhibition ± SD (%), carvacrol 0.1 ppm, 24 h OD): 32.3 ± 2.8%; inhibition at 0.31 ppm ([3]; Penicillium digitatum, 24 h, read-out: Inhibition ± SD (%), carvacrol 0.31 ppm, 24 h OD): 34.3 ± 2.8%; inhibition at 1 ppm ([3]; Penicillium digitatum, 24 h, read-out: Inhibition ± SD (%), carvacrol 1 ppm, 24 h OD): 37.9 ± 3%; inhibition at 3.1 ppm ([3]; Penicillium digitatum, 24 h, read-out: Inhibition ± SD (%), carvacrol 3.1 ppm, 24 h OD): 52.6 ± 2.2%; inhibition at 10 ppm ([3]; Penicillium digitatum, 24 h, read-out: Inhibition ± SD (%), carvacrol 10 ppm, 24 h OD): 58%; inhibition at 31 ppm ([3]; Penicillium digitatum, 24 h, read-out: Inhibition ± SD (%), carvacrol 31 ppm, 24 h OD): 86 ± 1.1%; inhibition at 100 ppm ([3]; Penicillium digitatum, 24 h, read-out: Inhibition ± SD (%), carvacrol 100 ppm, 24 h OD): 100%; Inhibition ± SD (%) ([3]; carvacrol 10 ppm, 24 h OD): 57.8 ± 2.1%; inhibition at 10 ppm ([4]; Cercospora beticola, carvacrol 10 ppm, read-out: Inhibition ± SD (%)): 17%; Inhibition ± SD (%) ([5]; carvacrol 26 ppm): 7.2%; Inhibition ± SD (%) ([5]; carvacrol 31 ppm): 7.4%; Inhibition ± SD (%) ([5]; carvacrol 100 ppm): 16.7%; Inhibition ± SD (%) ([5]; carvacrol 200 ppm): 18.6%; Inhibition ± SD (%) ([5]; carvacrol 308 ppm): 20.8%; Inhibition ± SD (%) [5, 10]: 21%; Inhibition ± SD (%) ([6]; carvacrol 26 ppm): 4.3%; Inhibition ± SD (%) ([6]; carvacrol 31 ppm): 5.8%; Inhibition ± SD (%) ([6]; carvacrol 100 ppm): 11.4%; Inhibition ± SD (%) ([6]; carvacrol 200 ppm): 16.1%; Inhibition ± SD (%) ([6]; carvacrol 308 ppm): 18% and 18.4%; Inhibition ± SD (%) ([7]; carvacrol 26 ppm): 3.2 ± 0.8%; Inhibition ± SD (%) ([7]; carvacrol 150 ppm): 17.1 ± 2.3%; Inhibition ± SD (%) ([7]; carvacrol 308 ppm): 35.0 ± 4.8%; Inhibition ± SD (%) [7, 10]: 35%

**Q.** Which “Inhibition ± SD (%)” value ([1]; K2CO3 3.5 mM, 24 h OD) does the source give for O=C([O-])[O-].[K+].[K+] [K2CO3, potassium carbonate] here?
**A.** 48% and 48.2%

**Q.** What about the “Inhibition ± SD (%)” value ([1]; K2CO3 4.25 mM, 24 h OD) of the same molecule?
**A.** 53.3%

**Q.** And the “Inhibition ± SD (%)” value ([1]; K2CO3 4.5 mM, 24 h OD)?
**A.** 67.2%

**Q.** What about the “Inhibition ± SD (%)” value ([1]; K2CO3 5 mM, 24 h OD) of the same molecule?
**A.** 71.0%

**Q.** And the “inhibition of the culture” value [1, 11]?
**A.** inhibition of the B. cinerea culture was observed

**Q.** What about the “Inhibition ± SD (%)” value ([2]; K2CO3 3.5 mM, 24 h OD) of the same molecule?
**A.** 32% and 31.5%

**Q.** And the “Inhibition ± SD (%)” value ([2]; K2CO3 4.25 mM, 24 h OD)?
**A.** 39.7%

**Q.** What about the “Inhibition ± SD (%)” value ([2]; K2CO3 4.5 mM, 24 h OD) of the same molecule?
**A.** 48.0%

**Q.** What about the “Inhibition ± SD (%)” value ([2]; K2CO3 5 mM, 24 h OD) of the same molecule?
**A.** 59.0%

**Q.** What about the “inhibition of the culture” value [2, 11] of the same molecule?
**A.** inhibition of the A. alternata culture was observed

**Q.** And the “Inhibition ± SD (%)” value ([3]; K2CO3 3.5 mM, 24 h OD)?
**A.** 29% and 29.1%

**Q.** And the “Inhibition ± SD (%)” value ([3]; K2CO3 4.25 mM, 24 h OD)?
**A.** 33.0%

**Q.** And the “Inhibition ± SD (%)” value ([3]; K2CO3 4.5 mM, 24 h OD)?
**A.** 36.9%

**Q.** And the “Inhibition ± SD (%)” value ([3]; K2CO3 5 mM, 24 h OD)?
**A.** 39.5%

**Q.** And the “inhibition of the culture” value [3, 11]?
**A.** inhibition of the P. digitatum culture was observed

**Q.** What about the “Inhibition ± SD (%)” value ([4]; K2CO3 7.24 mM) of the same molecule?
**A.** 25%

**Q.** And the “Inhibition ± SD (%)” value ([5]; K2CO3 12 mM)?
**A.** 14% and 13.4%

**Q.** What about the “Inhibition ± SD (%)” value ([5]; K2CO3 13 mM) of the same molecule?
**A.** 14% and 13.5%

**Q.** What about the “Inhibition ± SD (%)” value ([5]; K2CO3 14 mM) of the same molecule?
**A.** 13.8%

**Q.** And the “Inhibition ± SD (%)” value ([5]; K2CO3 15 mM)?
**A.** 13.8%

**Q.** And the “Inhibition ± SD (%)” value ([5]; K2CO3 22 mM)?
**A.** 15.3%

**Q.** And the “Inhibition ± SD (%)” value ([6]; K2CO3 12 mM)?
**A.** 6.5%

**Q.** What about the “Inhibition ± SD (%)” value ([6]; K2CO3 13 mM) of the same molecule?
**A.** 7%

**Q.** What about the “Inhibition ± SD (%)” value ([6]; K2CO3 14 mM) of the same molecule?
**A.** 7.2%

**Q.** What about the “Inhibition ± SD (%)” value ([6]; K2CO3 15 mM) of the same molecule?
**A.** 7.8%

**Q.** And the “Inhibition ± SD (%)” value ([6]; K2CO3 22 mM)?
**A.** 8.6%

**Q.** What about the “Inhibition ± SD (%)” value ([7]; K2CO3 15 mM) of the same molecule?
**A.** 19% and 18.5 ± 3.6%

**Q.** What about the “Inhibition ± SD (%)” value ([8]; K2CO3 15 mM, tomato plants) of the same molecule?
**A.** 14%

**Q.** What about the “Inhibition ± SD (%)” value ([8]; in vivo) of the same molecule?
**A.** 14% and 13.9 ± 0.5%

**Q.** And the fungicide treatment efficacy [9]?
**A.** effective as fungicide treatment

— patent US10820597B2, “Phytosanitary composition comprising essential oils that potentiate antifungal activity” (BIOFUNGITEK, S. L., priority 2011, dated 2020)
